Assay results as given in patent publication US8188080B2 (Sanford-Burnham Medical Research Institute, priority 2007, dated 2012).
Like-named read-outs stand apart in the source and are kept apart here.

Assays:
VHR [1] = target: T1, VHR (Homo sapiens, UniProt P51452); experiment: Inhibition constant and inhibition pattern (Lineweaver-Burk plot); type: biochemical; conditions: FIG. 1
Method: Using the same format and buffer system as for […] measurements, the enzyme was preincubated with various fixed concentrations of inhibitors for 10 minutes. The reaction was initiated by addition of various concentrations of DiFMUP (ranging from 0.2 to 10 km) to the reaction mixture. The initial rate was determined using a FLx800 micro plate reader (Bio-Tek Instruments, Inc.), and exitation wave length of 360 nm and measuring the emission of the fluorescent reaction product DiFMU at 460 nm. The nonenzymatic hydrolysis of the substrate was corrected by measuring the control without addition of enzyme. The inhibition constant and inhibition pattern was evaluated by fitting the data to the Michaelis-Menten equations for either competitive, uncompetitive or mixed inhibition, using nonlinear regression and the program GraphPad Prism™.

VHR [2] = target: T1, VHR; experiment: PTP-catalyzed hydrolysis of DiFMUP, IC50 determination (VHR); type: biochemical; conditions: read-out: IC50
Method: The PTP-catalyzed hydrolysis of 6,8-difluoro-4-methylumbelliferyl phosphate (DiFMUP) in the presence of the test compound is assayed at 30° C. in a 60 μL 96 well format reaction system in 0.15 M Bis-Tris, pH 6.0 assay buffer having an ionic strength of 150 mM (adjusted with NaCl) and containing 1 mM dithiotreitol and 5% DMSO. At various concentrations of the compound, the initial rate at fixed DiFMUP concentration (equal to the corresponding Km value for each PTP) was determined using a FLx800 micro plate reader (Bio-Tek Instruments, Inc.), an excitation wave length of 360 nm and measuring the emission of the fluorescent reaction product 6,8-difluoro-7-hydroxy-4-methylcoumarin (DiFMU) at 460 nm. The nonenzymatic hydrolysis of the substrate was corrected by measuring the control without addition of enzyme. The IC50 value was determined by plotting the relative activity versus inhibitor concentrations and fitting to Equation 1 using the software GraphPad Prism™ (GraphPad Software, Inc.).
[formula] In this case, Vi, is the reaction velocity when the inhibitor concentration is [I], V0 is the reaction velocity with no inhibitor and IC50=Ki+Ki[S]/Km.

Ball-1 cells = conditions: in vitro, arrest at G1/S transition; cited from earlier work
HIV-1 protease = HIV-1 protease (Human immunodeficiency virus type 1 group M subtype B, UniProt P04585); conditions: cited from earlier work
heparanase = target: T2, heparanase (Homo sapiens, UniProt Q9Y251); conditions: cited from earlier work
T2 sequence (Q9Y251 158-543 limits assumed): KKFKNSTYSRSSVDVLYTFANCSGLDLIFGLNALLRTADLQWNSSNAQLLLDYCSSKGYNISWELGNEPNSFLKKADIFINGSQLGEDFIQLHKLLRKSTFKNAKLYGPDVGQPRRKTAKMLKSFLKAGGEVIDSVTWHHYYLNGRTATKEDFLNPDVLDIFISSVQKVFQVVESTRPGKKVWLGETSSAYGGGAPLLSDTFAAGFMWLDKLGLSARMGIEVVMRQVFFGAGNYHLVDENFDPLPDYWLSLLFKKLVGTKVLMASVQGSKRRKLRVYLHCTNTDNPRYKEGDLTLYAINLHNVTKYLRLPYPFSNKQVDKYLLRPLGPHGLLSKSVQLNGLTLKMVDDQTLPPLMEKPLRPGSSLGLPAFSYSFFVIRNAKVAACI
T2 sequence (Q9Y251 36-109 partner limits assumed): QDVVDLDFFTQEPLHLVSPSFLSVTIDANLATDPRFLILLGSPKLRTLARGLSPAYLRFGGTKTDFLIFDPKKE

phospholipase A2 = conditions: cited from earlier work

T1 sequence (P51452 whole entry): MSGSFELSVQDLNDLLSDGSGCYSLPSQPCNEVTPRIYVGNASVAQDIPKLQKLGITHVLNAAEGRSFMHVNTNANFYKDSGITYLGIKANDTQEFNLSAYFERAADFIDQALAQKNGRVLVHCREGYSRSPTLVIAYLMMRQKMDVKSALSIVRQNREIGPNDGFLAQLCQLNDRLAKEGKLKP

Compound: O=C1/C(=C/C=C/c2ccccc2)SC(=S)N1CCS(=O)(=O)O [2-[(Z)-4-oxo-5-((E)-3-phenylallylidene)-2-thioxothiazolidin-3-yl]ethane-sulfonic acid]
- inhibition pattern of VHR (VHR [1]): competitive inhibition

Compound: CCOc1cc(/C=C2\SC(=S)N(CCS(=O)(=O)O)C2=O)ccc1O [Compound 1, (Z)-2-[5-(3-Ethoxy-4-hydroxybenzylidene)-4-oxo-2-thioxothiazolidin-3-yl)ethansulfonic acid]
- IC50 (VHR [2]): 50 µM

Compound: O=C1/C(=C/c2ccc(Cl)cc2Cl)SC(=S)N1CCS(=O)(=O)O [Compound 2, (Z)-2-[5-(2,4-Dichlorobenzylidene)-4-oxo-2-thioxothiazolidin-3-yl)ethansulfonic acid]
- IC50 (VHR [2]): 9.81 µM

Compound: O=C(CN1C(=O)C(/C=C2\SC(=S)N(CCS(=O)(=O)O)C2=O)c2ccccc21)Nc1ccc(F)cc1 (stereo not drawn) [Compound 4]
- IC50 (VHR [2]): 12 µM

Compound: CCCCCCCCCCCCCCCC(=O)C1=C(O)C(CO)OC1=O (stereo not drawn) [RK-682]
- cell cycle progression (Ball-1 cells): inhibited cell cycle progression
- HIV-1 protease inhibition (HIV-1 protease): HIV-1 protease inhibition
- heparanase inhibition (heparanase): heparanase inhibition
- phospholipase A2 inhibition (phospholipase A2): phospholipase A2 inhibition

Compound: (Z)-2-[5-(5-bromo-1-methyl-2-oxoindolin-3-ylidene)-4-oxo-2-thioxothiazolindin-3-yl]ethanesulfonic acid [Compound 3]
- IC50 (VHR [2]; Table I, DiFMUP at Km, pH 6.0, 30° C.): 32.6 µM
